In one assay the test system is wheat powdery mildew. Put plainly: in vivo protective activity, pot determination, wheat powdery mildew.
For a further assay, the system named is cucumber downy mildew. Put plainly: in vivo protective activity, pot determination, cucumber downy mildew.
A further assay has as its system rice blast. Put plainly: microbe, parasite or virus in culture. The settings on record: Pyricularia oryzae, 24 h, read-out: inhibition activity for rice blast. The assay is classed as cell-based.
The next assay has as its system cucumber anthrax. The assay is classed as in vivo. The settings on record: dose 400 ppm.
The next assay relates to Tetranychus cinnabarinus. Put plainly: activity against Tetranychus cinnabarinus, airbrush spray method. The settings on record: 600 mg/L, after 72 hours.
The next assay deals with green peach aphid. Put plainly: activity against the green peach aphid, airbrush spray method. The format is in vivo. The settings on record: 100 mg/L, after 48 hours.
The subject of the next assay is corn rust. Put plainly: in vivo protective activity, pot determination, corn rust.

Bounds are passed on as bounds.

In the case of `Cc1nc(C)c(C)c(N(C)Cc2cnn(-c3ccccc3)c2)n1` [CK3], the “Protective Activity (%), wheat powdery mildew” value in the assay with wheat powdery mildew (400 mg/L) is 0%. Moreover, the “Protective Activity (%), cucumber downy mildew” value in the assay with cucumber downy mildew (50 mg/L) was 0%; with cucumber downy mildew (100 mg/L), 30%; in the assay on cucumber downy mildew (400 mg/L), 100%. In the assay on rice blast, the inhibition at 2.8 ppm was 0%. Also, in the assay on rice blast, the inhibition at 8.3 ppm stood at 0%. In addition, in the assay on rice blast, the inhibition at 25 ppm is 0%. Moreover, in the assay with cucumber anthrax, the “protective effect for the melon anthrax / cucumber anthrax” value was 0%. Besides, the “Lethality to Tetranychus Cinnabarinus (%)” value with Tetranychus cinnabarinus is reported as 56%. Further, the “Lethality to Green Peach Aphid (%)” value with green peach aphid is recorded as 30%. In addition, the “Protective Activity (%), corn rust” value with corn rust (6.25 mg/L) was 0%; with corn rust (25 mg/L), 0%; in the assay with corn rust (100 mg/L), 20%; in the assay on corn rust (400 mg/L) it was 60%.

Turning to `Cc1c(OCCNc2ncnc(C(F)F)c2Cl)nn(C)c1-c1ccc(Cl)cc1` [Compound 12-1-19], in the assay on wheat powdery mildew (dose 6.25 ppm), the “protective effect for control of wheat powdery mildew” value is given as “more than 80%”. In the assay with cucumber anthrax, the “protective effect for the melon anthrax / cucumber anthrax” value is 100%.

In the case of `Cc1nc(Cl)cc(N(C)Cc2c(C)nn(-c3ccccc3)c2C)n1` [CK5], the “Protective Activity (%), wheat powdery mildew” value in the assay on wheat powdery mildew (400 mg/L) turned out to be 0%. Also, the “Protective Activity (%), cucumber downy mildew” value with cucumber downy mildew (400 mg/L) turned out to be 85%. In addition, in the assay on rice blast, the inhibition at 2.8 ppm stood at 0%. For the same molecule, the inhibition at 8.3 ppm with rice blast is 0%. Further, in the assay on rice blast, the inhibition at 25 ppm turned out to be 0%. Moreover, the “protective effect for the melon anthrax / cucumber anthrax” value with cucumber anthrax turned out to be 0%. The “Lethality to Tetranychus Cinnabarinus (%)” value in the assay with Tetranychus cinnabarinus is reported as 58%. For the same molecule, the “Lethality to Green Peach Aphid (%)” value in the assay on green peach aphid was found to be 22%. Besides, the “Protective Activity (%), corn rust” value amounted to 20% with corn rust (6.25 mg/L), 60% in the assay on corn rust (25 mg/L), 70% in the assay with corn rust (100 mg/L) and 98% in the assay on corn rust (400 mg/L).

On to `Cc1c(OCCNc2ncnc3ccccc23)nn(C)c1-c1ccc(F)cc1` [Compound 19-1-4], for which, in the assay on cucumber anthrax, the “protective effect for the melon anthrax / cucumber anthrax” value turned out to be 100%.

Consider `Cc1cc(N(C)Cc2cnn(-c3ccccc3)c2)nc(C(C)C)n1` [CK4], for which the “Protective Activity (%), wheat powdery mildew” value in the assay with wheat powdery mildew (400 mg/L) is 0%. Besides, the “Protective Activity (%), cucumber downy mildew” value in the assay on cucumber downy mildew (50 mg/L) stood at 0%; in the assay on cucumber downy mildew (100 mg/L), 40%; in the assay with cucumber downy mildew (400 mg/L), 100%. Moreover, the inhibition at 2.8 ppm with rice blast stood at 0%. Besides, in the assay with rice blast, the inhibition at 8.3 ppm was 0%. In addition, the inhibition at 25 ppm with rice blast worked out at 0%. The “protective effect for the melon anthrax / cucumber anthrax” value in the assay with cucumber anthrax is listed as 0%. For the same molecule, the “Lethality to Tetranychus Cinnabarinus (%)” value in the assay with Tetranychus cinnabarinus is listed as 59%. Also, the “Lethality to Green Peach Aphid (%)” value in the assay on green peach aphid stood at 0%. Moreover, the “Protective Activity (%), corn rust” value in the assay with corn rust (6.25 mg/L) is reported as 0%; in the assay on corn rust (25 mg/L), 0%; with corn rust (100 mg/L), 0%; with corn rust (400 mg/L), 40%.

Consider `Cc1c(OCCCNc2ncnc(C(F)F)c2Cl)nn(C)c1-c1ccccc1` [Compound 12-3-1], for which, in the assay with rice blast, the inhibition at 2.8 ppm was more than 80%, the inhibition at 8.3 ppm was more than 80% and the inhibition at 25 ppm was more than 80%.

Consider `Cn1nc(OCCNc2ncnc3scc(Cl)c23)cc1-c1ccc(Cl)cc1Cl` [Compound 21-21], for which, in the assay with cucumber anthrax, the “protective effect for the melon anthrax / cucumber anthrax” value was 100%.

Turning to `Cc1c(OCC(C)Nc2ncnc3ccccc23)nn(C)c1-c1ccccc1` (centres unmarked) [Compound 19-4-1], the “protective effect for the melon anthrax / cucumber anthrax” value in the assay on cucumber anthrax is recorded as 100%.

As for `CCc1ncnc(NCc2cnn(-c3ccccc3)c2C(F)(F)F)c1Cl` [CK2], the “Protective Activity (%), wheat powdery mildew” value is on record as 0% in the assay with wheat powdery mildew (6.25 mg/L), 20% in the assay on wheat powdery mildew (25 mg/L), 50% with wheat powdery mildew (100 mg/L) and 100% in the assay on wheat powdery mildew (400 mg/L). In addition, the “Protective Activity (%), cucumber downy mildew” value in the assay with cucumber downy mildew (25 mg/L) turned out to be 0%; with cucumber downy mildew (50 mg/L), 20%; in the assay on cucumber downy mildew (100 mg/L) it was 75%; in the assay on cucumber downy mildew (400 mg/L), 100%. Moreover, the inhibition at 2.8 ppm in the assay on rice blast came to 0%. Besides, the inhibition at 8.3 ppm in the assay with rice blast was determined as 0%. The inhibition at 25 ppm in the assay with rice blast was determined as 0%.

As for `CCc1ncnc(NCCOc2nn(C)c(-c3ccc(Cl)cc3)c2C)c1Cl` [Compound 11-1-19], the “protective effect for the melon anthrax / cucumber anthrax” value with cucumber anthrax is given as 100%.

With `CCc1ncnc(OCCOc2nn(C)c(-c3ccccc3)c2C)c1Cl` [Compound 26-1-1], the “protective effect for the melon anthrax / cucumber anthrax” value in the assay with cucumber anthrax amounted to 100%.

Regarding `Cc1c(OCCNc2ncnc(C(F)F)c2Cl)nn(C)c1-c1ccccc1` [Compound 12-1-1], the “protective effect for the melon anthrax / cucumber anthrax” value in the assay with cucumber anthrax stood at 100%.

As for `Cn1nc(OCCNc2ncnc3ccccc23)cc1-c1ccc(Br)cc1` [Compound 19-34], the inhibition at 25 ppm with rice blast was more than 80%.

`Cc1c(OCC(C)Nc2ncnc3scc(Cl)c23)nn(C)c1-c1ccccc1` (centres unmarked) [Compound 21-4-1]: the “protective effect for the melon anthrax / cucumber anthrax” value in the assay on cucumber anthrax is given as 100%.

In the case of `Cc1ncnc(NCCOc2cc(-c3ccc(Cl)cc3Cl)n(C)n2)c1Cl` [Compound 10-21], in the assay with cucumber anthrax, the “protective effect for the melon anthrax / cucumber anthrax” value was determined as 100%.

Turning to `CCc1ncnc(NCc2cnn(-c3ccccc3)c2C)c1Cl` [CK1], the “Protective Activity (%), cucumber downy mildew” value is reported as 0% with cucumber downy mildew (25 mg/L), 20% in the assay with cucumber downy mildew (50 mg/L), 95% in the assay on cucumber downy mildew (100 mg/L) and 100% in the assay with cucumber downy mildew (400 mg/L). The inhibition at 2.8 ppm in the assay with rice blast came out at 0%. In addition, in the assay on rice blast, the inhibition at 8.3 ppm was found to be 0%. In addition, the inhibition at 25 ppm in the assay with rice blast amounted to 0%. Besides, in the assay with green peach aphid, the “Lethality to Green Peach Aphid (%)” value stood at 0%.

Take `Cc1c(OCCNc2ncnc3scc(Cl)c23)nn(C)c1-c1ccc(F)cc1` [Compound 21-1-4]: the “protective effect for the melon anthrax / cucumber anthrax” value with cucumber anthrax stood at 100%.

As a reminder, the inhibition is how much of the control response was suppressed.
